In patent publication US10131663B2, “Chemical compounds” (AstraZeneca AB, priority 2016, dated 2018):
Values after ≈ are worked out from the molar mass of the structure shown.

Key:
[1] = Human Caco-2 bidirectional permeability A to B and B to A; type: in vitro ADME; conditions: for Papp at 2 h: Caco-2, 2 hours, pH 7.4
Protocol: An automated assay was used to determine the bidirectional permeability (efflux and uptake) of compounds in Caco-2 cells carried out over 2 hours at pH 7.4.
The efflux ratio (ER) can be determined using the following equation: ER=Papp(B-A)/Papp(A-B) Where Papp (B-A) indicates the apparent permeability coefficient in basolateral to apical direction, and Papp (A-B) indicates the apparent permeability coefficient in apical to basolateral direction. Human Caco-2 Passive Permeability A to B Papp

[2] = Human hepatocyte assay (metabolic stability); type: in vitro ADME; conditions: human hepatocytes
Protocol: The metabolic stability of compounds in human hepatocytes was assessed using the following protocol: • 1. Prepare 10 mM stock solutions of compound and control compounds in appropriate solvent (DMSO). Place incubation medium (L-15 Medium) in a 37° C. water bath, and allow warming for at least 15 minutes prior to use. • 2. Add 80 μL of acetonitrile to each well of the 96-well deep well plate (quenching plate). • 3. In a new 96-well plate, dilute the 10 mM test compounds and the control compounds to 100 μM by combining 198 μL of acetonitrile and 2 μL of 10 mM stock. • 4. Remove a vial of cryopreserved (less than −150° C.) human hepatocytes (LiverPool™ 10 Donor Human hepatocytes obtained from Celsis IVT. Chicago, Ill. (Product No. S01205)) from storage, ensuring that vials remain at cryogenic temperatures until thawing process ensues. As quickly as possible, thaw the cells by placing the vial in a 37° C. water bath and gently shaking the vials. Vials should remain in water bath until all ice crystals have dissolved and are no longer visible. After thawing is complete, spray vial with 70% ethanol, transfer the vial to a bio-safety cabinet. • 5. Open the vial and pour the contents into the 50 mL conical tube containing thawing medium. Place the 50 mL conical tube into a centrifuge and spin at 100 g for 10 minutes. […] Using Cellometer® Vision, count cells and determine the viable cell density. Cells with poor viability (<80% viability) are not acceptable for use. […] Transfer 247.5 μL of hepatocytes into each well of a 96-well cell culture plate. Place the plate on Eppendorf Thermomixer Comfort plate shaker to allow the hepatocytes to warm for 10 minutes. • 8. Add 2.5 μL of 100 μM test compound or control compounds into an incubation well containing cells, mix to achieve a homogenous suspension at 0.5 min, which when achieved, will define the 0.5 min time point. At the 0.5 min time, transfer 20 μL of incubated mixture to wells in a “Quenching plate” followed by vortexing. • 9. Incubate the plate at 37° C. at 900 rpm on an Eppendorf Thermomixer Comfort plate shaker. […] Centrifuge the quenching plates for 20 minutes at 4,000 rpm. 4 different compounds are pooled into one cassette and used for LC/MS/MS analysis.
All calculations were carried out using Microsoft Excel. Peak areas were determined from extracted ion chromatograms. In vitro intrinsic clearance (in vitro Clint, in […]) of parent compound was determined by regression analysis of the Ln percent parent disappearance vs. time curve.
V=incubation volume (0.25 mL);
N=number of hepatocytes per well (0.25×10^6 cells).

[3] = log D (shake flask, 1-octanol/aqueous buffer); type: physicochemical
Procedure, shortened: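 Distribution between 1-octanol and aqueous buffer at pH 7.4 was measured by shake flask, with compounds run in mixtures of ten. Relative concentrations in each phase were quantified by UPLC with quantitative MS. Caffeine served as a low-log D QC sample in all runs.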

[4] = Thermodynamic solubility (shake-flask); type: physicochemical; conditions: aqueous phosphate buffer, 25 °C, pH 7.4, aqueous buffer, thermodynamic from solid, aqueous phosphate buffer pH 7.4, 24 hours
Procedure, shortened: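 Shake-flask method starting from 10 mM DMSO stocks, which are dried before use. Residue equilibrated 24 h at 25° C. in aqueous phosphate buffer, pH 7.4. Dissolved fraction separated and quantified by UPLC/MS/MS, with QC samples in each run.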

[5] = Human plasma protein binding (equilibrium dialysis); type: in vitro ADME; conditions: dialysis 18 hours
Procedure, shortened: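 Fraction unbound (fu %) in human plasma, from LC/MSMS of plasma and buffer sides (7-point plasma calibration) after 18 h rapid equilibrium dialysis. Single determinations, with compounds pooled up to 10 per plasma pool.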

[6] = target: T1, Estrogen Receptor (ERα) in MCF-7 cells (Homo sapiens (Human), UniProt P03372); experiment: MCF-7 ER down-regulation assay (immuno-fluorescence); type: cell-based
Procedure, shortened: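 Compounds dispensed acoustically from DMSO stocks onto MCF-7 cells; cells fixed 20 min at room temperature, then automated immunostaining for ERα with overnight incubation at 4° C. Read-out is mean total ER fluorescence intensity normalized to cell number (intensity per cell), with curve fitting for concentration-response values.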

[7] = target: recombinant human Estrogen Receptor alpha ligand binding domain (ER alpha-LBD (GST)) (Homo sapiens (Human), UniProt P03372); experiment: ERα binding assay (LanthaScreen TR-FRET competition); conditions: TR-FRET, displacement of Fluormone ES2
Procedure, shortened: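 Competition binding to GST-tagged human ERα ligand-binding domain, read by LanthaScreen TR-FRET: Tb-anti-GST antibody labels the receptor and compounds displace a fluorescent tracer, lowering the signal. IC50 was taken from dose-response curve fitting.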

[8] = Human Caco-2 passive permeability A to B Papp; type: in vitro ADME; conditions: apical pH 6.5, basolateral pH 7.4, efflux inhibitor cocktail
Protocol: An automated assay was used to determine the passive permeability of compounds in Caco-2 cell monolayers carried out over 2 hours with an apical pH of 6.5 and basolateral pH of 7.4. The Caco-2 AB inhibition assay is carried out with chemical inhibition of the three major efflux transporters ABCB1 (P-gp), ABCG2 (BCRP) and ABCC2 (MRP2) in Caco-2 cells. Incubation of both apical and basolateral is carried out with a cocktail of inhibitors (50 μM quinidine, 20 μM sulfasalazine and 100 μM benzbromarone). Samples were analyzed through LC/MS/MS to estimate the apparent permeability coefficients (Papp) of compounds across Caco-2 cell monolayers and results are quoted in units of ×10^−6 cm/s.

hERG potassium channel = hERG potassium channel (Homo sapiens (Human), UniProt Q12809); experiment: hERG binding assay (automated patch clamp, CHO cells); type: cell-based; conditions: CHO cell line, Nanion Syncropatch 384PE
Procedure, shortened: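 CHO cells on automated patch clamp; compounds tested in quadruplicate. Currents evoked every 15 s from −80 mV holding by a 500 ms step to 60 mV then 500 ms to −40 mV.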

[9] = target: estrogen receptor (ERα) in CAMA-1 cells (Homo sapiens (Human), UniProt P03372); experiment: Western blotting assay, ER down-regulation in CAMA-1; type: cell-based; conditions: 100 nM compound, 48 h, normalised to 100 nM fulvestrant
Protocol: (§1) Cells were incubated with compounds (100 nM) or vehicle control (0.1% DMSO) for 48 h at 37° C., 5% CO2 before washing once with PBS and lysing with 80 μl lysis buffer (25 mM Tris/HCl, 3 mM EDTA, 3 mM EGTA, 50 mM NaF, 2 mM sodium orthovanadate, 0.27 M sucrose, 10 mM β-glycerophosphate, 5 mM sodium pyrophosphate, 0.5% TritonX-100, pH 6.8) on ice.
(§2) Samples were boiled for 10 min at 95° C. and then frozen at −20° C. until ready for use.
(§3) The blot was stained with Ponceau S (P7170, Sigma) and cut according to appropriate molecular weight markers.
(§4) Membranes were blocked for 1 hour at room temp in 5% Marvel (w/v) in phosphate-buffered saline containing 0.05% Tween™ 20 (PBS/Tween). Blots were then incubated with anti-ERα (SP1) rabbit monoclonal antibody (Thermofisher) diluted 1:1000 at 4° C. overnight (with gentle shaking) followed by several washes with PBS/Tween. […] All antibodies were made up in 5% Marvel (w/v) in PBS/Tween.
(§5) Down-regulation of the ERα receptor was normalised to the vehicle control (0% down-regulation) and the 100 nM fulvestrant control (100% down-regulation) run within the same gel.

[10] = target: T1, Estrogen Receptor (ERα) in MCF-7 cells; experiment: Western blotting assay, ER down-regulation in MCF-7; type: cell-based; conditions: 100 nM compound, 48 h, normalised to 100 nM fulvestrant
Protocol: as §1, §2, §3, §4, §5

ERα receptor = ERα receptor (Homo sapiens (Human), UniProt P03372); conditions: 500 mg monthly dose; cited from earlier work
[11] = 1-octanol/aqueous buffer, pH 7.4, pH 7.4, 1-octanol/aqueous buffer

Sequence of estrogen receptor (ERα) in CAMA-1 cells (P03372 whole entry): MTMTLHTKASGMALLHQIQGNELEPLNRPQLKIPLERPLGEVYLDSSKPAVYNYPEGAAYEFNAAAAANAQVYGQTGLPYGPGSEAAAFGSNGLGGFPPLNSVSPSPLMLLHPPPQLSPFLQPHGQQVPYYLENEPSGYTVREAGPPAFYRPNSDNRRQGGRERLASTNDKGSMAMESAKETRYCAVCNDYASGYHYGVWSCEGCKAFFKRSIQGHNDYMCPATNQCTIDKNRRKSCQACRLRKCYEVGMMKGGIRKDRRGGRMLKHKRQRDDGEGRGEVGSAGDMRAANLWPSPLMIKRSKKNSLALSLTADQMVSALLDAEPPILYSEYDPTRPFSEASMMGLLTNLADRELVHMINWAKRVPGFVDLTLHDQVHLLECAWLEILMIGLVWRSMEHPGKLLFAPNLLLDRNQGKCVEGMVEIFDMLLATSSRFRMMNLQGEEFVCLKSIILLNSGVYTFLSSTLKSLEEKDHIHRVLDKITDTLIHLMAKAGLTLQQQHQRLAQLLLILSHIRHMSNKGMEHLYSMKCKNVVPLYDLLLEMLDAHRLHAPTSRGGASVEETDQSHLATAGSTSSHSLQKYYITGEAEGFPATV
T1 sequence (P03372 whole entry): as above
Sequence of recombinant human Estrogen Receptor alpha ligand binding domain (ER alpha-LBD (GST)) (P03372 307-554): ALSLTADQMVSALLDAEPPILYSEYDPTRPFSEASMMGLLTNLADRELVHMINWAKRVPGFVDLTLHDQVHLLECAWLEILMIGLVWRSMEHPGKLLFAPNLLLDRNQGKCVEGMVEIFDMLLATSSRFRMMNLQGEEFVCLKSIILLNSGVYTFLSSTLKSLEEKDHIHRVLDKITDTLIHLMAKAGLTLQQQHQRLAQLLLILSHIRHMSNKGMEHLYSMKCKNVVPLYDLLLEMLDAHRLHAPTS
Sequence of hERG potassium channel (Q12809 whole entry): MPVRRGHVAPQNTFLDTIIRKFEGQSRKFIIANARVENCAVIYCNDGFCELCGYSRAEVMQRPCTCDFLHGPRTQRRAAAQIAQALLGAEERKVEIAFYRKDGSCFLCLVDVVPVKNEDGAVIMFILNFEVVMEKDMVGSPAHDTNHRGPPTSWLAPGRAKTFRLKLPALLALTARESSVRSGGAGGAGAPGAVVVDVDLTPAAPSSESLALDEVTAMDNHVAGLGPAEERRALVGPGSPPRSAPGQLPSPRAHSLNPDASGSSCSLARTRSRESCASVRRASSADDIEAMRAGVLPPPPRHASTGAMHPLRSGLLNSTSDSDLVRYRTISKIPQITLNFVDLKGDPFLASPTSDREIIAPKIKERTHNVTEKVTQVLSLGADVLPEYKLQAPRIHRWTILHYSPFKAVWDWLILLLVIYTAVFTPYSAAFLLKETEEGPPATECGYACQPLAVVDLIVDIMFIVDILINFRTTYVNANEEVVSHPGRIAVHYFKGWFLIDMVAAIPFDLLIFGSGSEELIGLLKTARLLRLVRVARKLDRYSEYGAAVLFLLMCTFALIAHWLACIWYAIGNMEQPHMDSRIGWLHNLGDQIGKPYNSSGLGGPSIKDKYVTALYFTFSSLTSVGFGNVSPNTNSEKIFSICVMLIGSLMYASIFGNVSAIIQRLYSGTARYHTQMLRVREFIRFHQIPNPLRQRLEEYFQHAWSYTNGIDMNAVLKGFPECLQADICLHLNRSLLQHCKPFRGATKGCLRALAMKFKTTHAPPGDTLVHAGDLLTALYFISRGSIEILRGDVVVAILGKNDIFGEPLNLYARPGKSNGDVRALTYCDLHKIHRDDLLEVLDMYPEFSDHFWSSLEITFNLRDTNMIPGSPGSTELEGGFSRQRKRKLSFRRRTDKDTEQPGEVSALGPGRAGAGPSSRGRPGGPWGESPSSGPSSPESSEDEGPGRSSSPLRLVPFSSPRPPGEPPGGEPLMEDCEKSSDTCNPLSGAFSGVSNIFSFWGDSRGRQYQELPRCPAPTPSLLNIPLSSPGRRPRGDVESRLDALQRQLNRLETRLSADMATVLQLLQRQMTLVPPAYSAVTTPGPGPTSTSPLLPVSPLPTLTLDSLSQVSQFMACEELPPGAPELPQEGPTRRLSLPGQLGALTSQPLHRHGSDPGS
Sequence of ERα receptor (P03372 whole entry): as the sequence (P03372 whole entry) above

Q: With `C[C@@H]1Cc2c(ccc3[nH]ncc23)[C@@H](c2c(F)cc(NC3CN(CCCF)C3)cc2F)N1CC1(F)CC1` [Example 11, N-(3,5-difluoro-4-((6S,8R)-7-((1-fluorocyclopropyl)methyl)-8-methyl-6,7,8,9-tetrahydro-3H-pyrazolo[4,3-f]isoquinolin-6-yl)phenyl)-1-(3-fluoropropyl)azetidin-3-amine] as the compound, how does the Papp at 2 h [1] read?
A: 1.6 ×10⁻⁶ cm/s

Q: And the efflux ratio at 2 h ([1]; Caco-2, pH 7.4)?
A: 1.4

Q: And the hepatocyte CLint at 1 µM [2]?
A: 7 µL/min/1e6 cells

Q: And the logD [3, 11]?
A: 3.9

Q: And the solubility at 24 h [4]?
A: 186 µM (≈ 93.3 µg/mL)

Q: And the “Human plasma protein binding (% free)” value [5]?
A: 2 % free

Q: And the IC50 [6]?
A: 0.094 nM

Q: What about the IC50 [7] of the same compound?
A: 20 nM

Q: With `C[C@@H]1Cc2c(ccc3[nH]ncc23)[C@@H](c2ccc(NC3CN(CCCF)C3)c(F)n2)N1CC(F)(F)F` [Example 29, 2-fluoro-N-(1-(3-fluoropropyl)azetidin-3-yl)-6-((6S,8R)-8-methyl-7-(2,2,2-trifluoroethyl)-6,7,8,9-tetrahydro-3H-pyrazolo[4,3-f]isoquinolin-6-yl)pyridin-3-amine] as the compound, how does the Papp at 2 h [1] read?
A: 12 ×10⁻⁶ cm/s

Q: What about the Papp at 2 h [8] of the same compound?
A: 24 ×10⁻⁶ cm/s

Q: And the logD ([3]; pH 7.4, 1-octanol/aqueous buffer)?
A: 3

Q: What about the solubility at 24 h [4] of the same compound?
A: 779 µM (≈ 385 µg/mL)

Q: What about the “Human plasma protein binding (% free)” value [5] of the same compound?
A: 16 % free

Q: Which IC50 (hERG potassium channel) does the source give for `C[C@@H]1Cc2c(ccc3[nH]nc(F)c23)[C@@H](c2ccc(NC3CN(CCCF)C3)cn2)N1CC(F)(F)F` [Example 32] here?
A: 14000 nM

Q: What about the Papp at 2 h [1] of the same compound?
A: 3.4 ×10⁻⁶ cm/s

Q: And the “CAMA1 Western % ER deg vs Fv” value [9]?
A: 89%

Q: And the logD [3, 11]?
A: 3.5

Q: And the solubility at 24 h [4]?
A: 692 µM (≈ 342 µg/mL)

Q: What about the “MCF7 Western % ER deg vs Fv” value [10] of the same compound?
A: 89%

Q: What about the “Human plasma protein binding (% free)” value [5] of the same compound?
A: 6.5 % free

Q: For `C[C@@H]1Cc2c(ccc3[nH]ncc23)[C@@H](c2ccc(NC3CN(CCCF)C3)nc2F)N1CC(F)(F)F` [Example 40, 6-fluoro-N-(1-(3-fluoropropyl)azetidin-3-yl)-5-((6S,8R)-8-methyl-7-(2,2,2-trifluoroethyl)-6,7,8,9-tetrahydro-3H-pyrazolo[4,3-f]isoquinolin-6-yl)pyridin-2-amine], which IC50 (hERG potassium channel) is on record?
A: 4500 nM

Q: What about the “CAMA1 Western % ER deg vs Fv” value [9] of the same compound?
A: 120%

Q: What about the logD [3, 11] of the same compound?
A: 3.5

Q: What about the solubility at 24 h [4] of the same compound?
A: 479 µM (≈ 237 µg/mL)

Q: And the “MCF7 Western % ER deg vs Fv” value [10]?
A: 98%

Q: And the “Human plasma protein binding (% free)” value [5]?
A: 6.4 % free

Q: What about the IC50 [6] of the same compound?
A: 0.1 nM

Q: What about the IC50 [7] of the same compound?
A: 1.3 nM

Q: Which results are given for `C[C@@H]1Cc2c(ccc3[nH]ncc23)[C@@H](c2ncc(NC3CN(CCCF)C3)cc2F)N1CC(F)F` [Example 46, 6-((6S,8R)-7-(2,2-difluoroethyl)-8-methyl-6,7,8,9-tetrahydro-3H-pyrazolo[4,3-f]isoquinolin-6-yl)-5-fluoro-N-(1-(3-fluoropropyl)azetidin-3-yl)pyridin-3-amine]?
A: IC50 (hERG potassium channel): > 40000 nM; CAMA1 Western % ER deg vs Fv [9]: 102%; logD [3, 11]: 2.5; solubility at 24 h [4]: > 1000 µM; MCF7 Western % ER deg vs Fv [10]: 105%; Human plasma protein binding (% free) [5]: 31 % free; IC50 [6]: 0.4 nM; IC50 [7]: 3.6 nM

Q: Which IC50 (hERG potassium channel) does the source give for `C[C@@H]1Cc2c(ccc3[nH]ncc23)[C@@H](c2ncc(OC3CN(CCCF)C3)cc2F)N1CC(F)(F)CO` [Example 59, 2,2-difluoro-3-((6S,8R)-6-(3-fluoro-5-((1-(3-fluoropropyl)azetidin-3-yl)oxy)pyridin-2-yl)-8-methyl-3,6,8,9-tetrahydro-7H-pyrazolo[4,3-f]isoquinolin-7-yl)propan-1-ol] here?
A: > 40000 nM

Q: And the “CAMA1 Western % ER deg vs Fv” value [9]?
A: 102%

Q: And the logD [3, 11]?
A: 2.4

Q: What about the solubility at 24 h [4] of the same compound?
A: 971 µM (≈ 493 µg/mL)

Q: What about the “MCF7 Western % ER deg vs Fv” value [10] of the same compound?
A: 104%

Q: And the “Human plasma protein binding (% free)” value [5]?
A: 33 % free

Q: And the IC50 [6]?
A: 1.6 nM

Q: What about the IC50 [7] of the same compound?
A: 7.2 nM

Q: What does the source list for `CC(C)CN1[C@H](c2ccc(NC3CN(CCCF)C3)cn2)c2ccc3[nH]ncc3c2C[C@H]1C` [Example 69, N-(1-(3-fluoropropyl)azetidin-3-yl)-6-((6S,8R)-7-isobutyl-8-methyl-6,7,8,9-tetrahydro-3H-pyrazolo[4,3-f]isoquinolin-6-yl)pyridin-3-amine]?
A: IC50 (hERG potassium channel): 24000 nM; CAMA1 Western % ER deg vs Fv [9]: 98%; logD [3, 11]: 2.9; solubility at 24 h [4]: > 1000 µM; MCF7 Western % ER deg vs Fv [10]: 95%; Human plasma protein binding (% free) [5]: 37 % free; IC50 [6]: 0.55 nM; IC50 [7]: 8.9 nM

Q: For `C[C@]12CC[C@@H]3c4ccc(O)cc4C[C@@H](CCCCCCCCC[S+]([O-])CCCC(F)(F)C(F)(F)F)[C@H]3[C@@H]1CC[C@@H]2O` (some centres unmarked) [Fulvestrant, fulvestrant], which “turnover of the receptor in patient samples” value (ERα receptor) is on record?
A: less than 50%
